Laboratory results: a compilation of properties of binary mixtures (doi:10.1016/j.molliq.2014.08.031)

Assay: xn = mol fraction of the nth substance listed
Conditions: 101 kPa

CCCC[n+]1ccn(C)c1.CS(=O)(=O)[O-] + O
Conditions | electrical conductivity [S/m] | viscosity [mPa·s]
328.15 K, x2 = 0.796 | 3.01 | –
328.15 K, x2 = 0.861 | 5.12 | –
328.15 K, x2 = 0.892 | 6.23 | –
328.15 K, x2 = 0.929 | 7.21 | –
328.15 K, x2 = 0.968 | 7 | –
329.15 K, x1 = 0.004 | 2.04 | –
329.15 K, x1 = 0.008 | 3.67 | –
329.15 K, x1 = 0.019 | 5.81 | –
329.15 K, x2 = 0.785 | 2.9 | –
329.15 K, x2 = 0.796 | 3.05 | –
329.15 K, x2 = 0.861 | 5.25 | –
329.15 K, x2 = 0.892 | 6.26 | –
329.15 K, x2 = 0.929 | 7.35 | –
329.15 K, x2 = 0.951 | 7.83 | –
330.15 K, x1 = 0.004 | 2.09 | –
330.15 K, x1 = 0.008 | 3.72 | –
330.15 K, x1 = 0.019 | 5.88 | –
330.15 K, x2 = 0.704 | 1.84 | –
330.15 K, x2 = 0.785 | 2.98 | –
330.15 K, x2 = 0.861 | 5.37 | –
330.15 K, x2 = 0.892 | 6.36 | –
330.15 K, x2 = 0.929 | 7.5 | –
330.15 K, x2 = 0.951 | 7.95 | –
330.15 K, x2 = 0.968 | 7.38 | –
331.15 K, x1 = 0.004 | 2.13 | –
331.15 K, x1 = 0.008 | 3.77 | –
331.15 K, x2 = 0.785 | 3.04 | –
331.15 K, x2 = 0.796 | 3.2 | –
331.15 K, x2 = 0.892 | 6.46 | –
331.15 K, x2 = 0.929 | 7.61 | –
331.15 K, x2 = 0.951 | 8.05 | –
331.15 K, x2 = 0.968 | 7.39 | –
332.15 K, x1 = 0.004 | 2.15 | –
332.15 K, x1 = 0.008 | 3.83 | –
332.15 K, x1 = 0.019 | 6.06 | –
332.15 K, x2 = 0.704 | 1.99 | –
332.15 K, x2 = 0.785 | 3.13 | –
332.15 K, x2 = 0.796 | 3.29 | –
332.15 K, x2 = 0.861 | 5.61 | –
332.15 K, x2 = 0.892 | 6.57 | –
332.15 K, x2 = 0.968 | 7.57 | –
333.15 K, x1 = 0.004 | 2.17 | –
333.15 K, x1 = 0.008 | 3.78 | –
333.15 K, x1 = 0.019 | 6.17 | –
333.15 K, x2 = 0.5596 | – | 14
333.15 K, x2 = 0.6542 | – | 9.62
333.15 K, x2 = 0.704 | 2.04 | –
333.15 K, x2 = 0.7495 | – | 6.25
333.15 K, x2 = 0.785 | 3.21 | –
333.15 K, x2 = 0.796 | 3.36 | –
333.15 K, x2 = 0.8521 | – | 3.29
333.15 K, x2 = 0.861 | 5.75 | –
333.15 K, x2 = 0.892 | 6.73 | –
333.15 K, x2 = 0.9254 | – | 1.742
333.15 K, x2 = 0.929 | 7.9 | –
333.15 K, x2 = 0.951 | 8.3 | –
333.15 K, x2 = 0.975 | – | 0.79
334.15 K, x1 = 0.004 | 2.18 | –
334.15 K, x1 = 0.008 | 3.93 | –
334.15 K, x1 = 0.019 | 6.35 | –
334.15 K, x2 = 0.704 | 2.12 | –
334.15 K, x2 = 0.785 | 3.28 | –
334.15 K, x2 = 0.796 | 3.43 | –
334.15 K, x2 = 0.861 | 5.94 | –
334.15 K, x2 = 0.892 | 6.95 | –
334.15 K, x2 = 0.929 | 8.03 | –
334.15 K, x2 = 0.951 | 8.46 | –
335.15 K, x1 = 0.008 | 3.98 | –
335.15 K, x1 = 0.019 | 6.33 | –
335.15 K, x2 = 0.704 | 2.17 | –
335.15 K, x2 = 0.785 | 3.35 | –
335.15 K, x2 = 0.796 | 3.52 | –
335.15 K, x2 = 0.861 | 5.97 | –
335.15 K, x2 = 0.892 | 7.12 | –
335.15 K, x2 = 0.929 | 8.18 | –
335.15 K, x2 = 0.951 | 8.59 | –
335.15 K, x2 = 0.968 | 7.93 | –
336.15 K, x1 = 0.008 | 4.04 | –
336.15 K, x1 = 0.019 | 6.42 | –
336.15 K, x2 = 0.704 | 2.19 | –
336.15 K, x2 = 0.785 | 3.42 | –
336.15 K, x2 = 0.796 | 3.59 | –
336.15 K, x2 = 0.861 | 6.09 | –
336.15 K, x2 = 0.892 | 7.28 | –
336.15 K, x2 = 0.929 | 8.3 | –
336.15 K, x2 = 0.968 | 8.02 | –
337.15 K, x1 = 0.004 | 2.29 | –
337.15 K, x1 = 0.008 | 4.1 | –
337.15 K, x1 = 0.019 | 6.53 | –
337.15 K, x2 = 0.704 | 2.3 | –
337.15 K, x2 = 0.785 | 3.52 | –
337.15 K, x2 = 0.892 | 7.41 | –
337.15 K, x2 = 0.951 | 8.9 | –
337.15 K, x2 = 0.968 | 8.19 | –
338.15 K, x1 = 0.004 | 2.31 | –
338.15 K, x1 = 0.008 | 4.15 | –
338.15 K, x2 = 0.704 | 2.35 | –
338.15 K, x2 = 0.892 | 7.53 | –
338.15 K, x2 = 0.929 | 8.57 | –
338.15 K, x2 = 0.968 | 8.14 | –
339.15 K, x1 = 0.004 | 2.35 | –
339.15 K, x1 = 0.008 | 4.19 | –
339.15 K, x1 = 0.019 | 6.73 | –
339.15 K, x2 = 0.704 | 2.42 | –
339.15 K, x2 = 0.785 | 3.67 | –
339.15 K, x2 = 0.796 | 3.85 | –
339.15 K, x2 = 0.861 | 6.47 | –
339.15 K, x2 = 0.892 | 7.69 | –
339.15 K, x2 = 0.929 | 8.73 | –
339.15 K, x2 = 0.951 | 9.11 | –
340.15 K, x1 = 0.004 | 2.39 | –
340.15 K, x1 = 0.008 | 4.25 | –
340.15 K, x1 = 0.019 | 6.83 | –
340.15 K, x2 = 0.704 | 2.47 | –
340.15 K, x2 = 0.785 | 3.75 | –
340.15 K, x2 = 0.796 | 3.93 | –
340.15 K, x2 = 0.861 | 6.6 | –
340.15 K, x2 = 0.892 | 7.77 | –
340.15 K, x2 = 0.929 | 8.85 | –
340.15 K, x2 = 0.951 | 9.22 | –
340.15 K, x2 = 0.968 | 8.56 | –
341.15 K, x1 = 0.004 | 2.42 | –
341.15 K, x1 = 0.008 | 4.29 | –
341.15 K, x1 = 0.019 | 6.96 | –
341.15 K, x2 = 0.704 | 2.54 | –
341.15 K, x2 = 0.785 | 3.84 | –
341.15 K, x2 = 0.796 | 4.07 | –
341.15 K, x2 = 0.861 | 6.71 | –
341.15 K, x2 = 0.929 | 9.03 | –
341.15 K, x2 = 0.951 | 9.15 | –
341.15 K, x2 = 0.968 | 8.57 | –
342.15 K, x1 = 0.008 | 4.35 | –
342.15 K, x1 = 0.019 | 6.93 | –
342.15 K, x2 = 0.704 | 2.61 | –
342.15 K, x2 = 0.796 | 4.11 | –
342.15 K, x2 = 0.929 | 9.18 | –
342.15 K, x2 = 0.951 | 9.55 | –
342.15 K, x2 = 0.968 | 8.66 | –
343.15 K, x1 = 0.008 | 4.38 | –
343.15 K, x1 = 0.019 | 7.17 | –
343.15 K, x2 = 0.5596 | – | 10.6
